Assay results published in article PMC12920379 (European Journal of Nuclear Medicine and Molecular Imaging, 2025).

Columns and labels:
PC3 tumors = assay: In vivo combination therapy with everolimus in PC3-mice
Method: (b) Everolimus monotherapy: Mice received everolimus (5 mg/kg/day) on days 0, 2, and 4 of the therapy.

[1] = Morphological assessment / tolerability of treated PC3-mice; assay type: in vivo
Method: Selected mouse organs (kidney, pancreas and tumor) were dissected from the sacrificed animals and immediately frozen using liquid nitrogen. Frozen tissue samples were sectioned at 7 μm thickness using a cryostat maintained at −20 °C to −25 °C and mounted onto microscope glass slides, followed by staining with hematoxylin and eosin for microscopic examination using standard protocols (supplementary material).
Frozen tissue samples (kidney, pancreas and tumor) were sectioned at 7 µm thickness using a cryostat maintained at −20°C to −25°C and mounted onto microscope glass slides. Sections were air-dried at room temperature for 15 minutes and subsequently fixed in 4% paraformaldehyde for 10 minutes. After rinsing in phosphate-buffered saline, slides were stained with hematoxylin for 5 minutes, rinsed in running tap water and differentiated in 1% acid alcohol followed by bluing in ammonia water. Sections were then counterstained with eosin for 1 minute and briefly washed in 70% ethanol to remove excess stain. Slides were dehydrated through graded ethanol (70%, 95%, 100%) and mounted with a permanent mounting medium. Stained sections were examined using a light microscope.

CO[C@H]1C[C@@H]2CC[C@@H](C)[C@@](O)(O2)C(=O)C(=O)N2CCCC[C@H]2C(=O)O[C@H]([C@H](C)C[C@@H]2CC[C@@H](OCCO)[C@H](OC)C2)CC(=O)[C@H](C)/C=C(\C)[C@@H](O)[C@@H](OC)C(=O)[C@H](C)C[C@H](C)/C=C/C=C/C=C/1C [everolimus]
Time tumor volume kept under 500 mm^3 (PC3 tumors; everolimus alone 5 mg/kg/day on days 0, 2, 4): 20 days
Median survival (PC3 tumors; everolimus alone 5 mg/kg/day on days 0, 2, 4, p > 0.5): ~ 25 days
Microscopic tissue examination, kidney ([1]; 5mg/kg (x3)): Vacuolar degeneration of some tubular epithelial cells. No other obvious lesions
Microscopic tissue examination, pancreas ([1]; 5mg/kg (x3)): No obvious lesions.
Tolerability (physical condition, weight fluctuations) ([1]; PC3-mice, three doses of everolimus): no observable side effects
